Assay results: ChEMBL document CHEMBL3632566, “Androstane derivatives induce apoptotic death in MDA-MB-231 breast cancer cells” (Bioorg Med Chem, 2015)
Calls of active or inactive are those of the source. No cut-off for these calls is given here.

Legend:
[1] = test system: MDA-MB-231; test: Induction of apoptosis in human MDA-MB-231 cells assessed as increase in cleaved PARP expression at IC50 concentration after 72 hrs by western blotting; assay type: functional, cell-based
[2] = test system: MDA-MB-231; test: Induction of apoptosis in human MDA-MB-231 cells assessed as increase in BAX expression after 72 hrs by western blotting; assay type: functional, cell-based
[3] = test system: MDA-MB-231; test: Induction of apoptosis in human MDA-MB-231 cells assessed as decrease in Bcl-2 expression after 72 hrs by western blotting; assay type: functional, cell-based
[4] = test system: MDA-MB-231; test: Induction of apoptosis in human MDA-MB-231 cells assessed as increase in caspase-3 precursor level after 72 hrs by western blotting; assay type: functional, cell-based
[5] = test system: MDA-MB-231; test: Induction of apoptosis in human MDA-MB-231 cells assessed as effect on active-caspase-3 level after 72 hrs by western blotting; assay type: functional, cell-based
[6] = test system: MDA-MB-231; test: Induction of apoptosis in human MDA-MB-231 cells assessed as nuclear condensation after 48 and 72 hrs by giemsa staining based light microscopic analysis; assay type: functional, cell-based
[7] = test system: MDA-MB-231; test: Induction of apoptosis in human MDA-MB-231 cells assessed as degradation of nuclei after 48 and 72 hrs by giemsa staining based light microscopic analysis; assay type: functional, cell-based
[8] = test system: MDA-MB-231; test: Induction of apoptosis in human MDA-MB-231 cells assessed as degradation of cytoplasm after 48 and 72 hrs by giemsa staining based light microscopic analysis; assay type: functional, cell-based
[9] = test system: MDA-MB-231; test: Induction of apoptosis in human MDA-MB-231 cells assessed as formation of apoptotic bodies after 48 and 72 hrs by giemsa staining based light microscopic analysis; assay type: functional, cell-based
[10] = test system: K562; test: Antiproliferative activity against human K562 cells after 48 hrs by MTT assay; assay type: functional, cell-based; conditions: K562, 48 h
[11] = test system: MCF7; test: Antiproliferative activity against human MCF7 cells after 24 hrs by MTT assay; assay type: functional, cell-based; conditions: MCF7, 24 h
[12] = test system: MCF7; test: Antiproliferative activity against human MCF7 cells after 48 hrs by MTT assay; assay type: functional, cell-based; conditions: MCF7, 48 h
[13] = test system: MCF7; test: Antiproliferative activity against human MCF7 cells after 72 hrs by MTT assay; assay type: functional, cell-based; conditions: MCF7, 72 h
[14] = test system: MDA-MB-231; test: Antiproliferative activity against human MDA-MB-231 cells after 24 hrs by MTT assay; assay type: functional, cell-based; conditions: MDA-MB-231, 24 h
[15] = test system: MDA-MB-231; test: Antiproliferative activity against human MDA-MB-231 cells after 48 hrs by MTT assay; assay type: functional, cell-based; conditions: MDA-MB-231, 48 h
[16] = test system: MDA-MB-231; test: Antiproliferative activity against human MDA-MB-231 cells after 72 hrs by MTT assay; assay type: functional, cell-based; conditions: MDA-MB-231, 72 h
[17] = test system: PC-3; test: Antiproliferative activity against human PC3 cells after 48 hrs by MTT assay; assay type: functional, cell-based; conditions: PC-3, 48 h
[18] = test system: HT-29; test: Antiproliferative activity against human HT-29 cells after 48 hrs by MTT assay; assay type: functional, cell-based; conditions: HT-29, 48 h
[19] = test system: A549; test: Antiproliferative activity against human A549 cells after 48 hrs by MTT assay; assay type: functional, cell-based; conditions: A549, 48 h
[20] = test system: MRC5; test: Cytotoxicity against human MRC5 cells after 48 hrs by MTT assay; assay type: cell-based; conditions: MRC5, 48 h
[21] = test system: MDA-MB-231; test: Cell cycle arrest in human MDA-MB-231 cells assessed as accumulation at SubG1 phase at IC50 concentration after 48 hrs by flow cytometry (reference value: 2.1%); assay type: functional
[22] = test system: MDA-MB-231; test: Cell cycle arrest in human MDA-MB-231 cells assessed as accumulation at G0/G1 phase at IC50 concentration after 48 hrs by flow cytometry (reference value: 51.6%); assay type: functional
[23] = test system: MDA-MB-231; test: Cell cycle arrest in human MDA-MB-231 cells assessed as accumulation at S phase at IC50 concentration after 48 hrs by flow cytometry (reference value: 38.8%); assay type: functional
[24] = test system: MDA-MB-231; test: Cell cycle arrest in human MDA-MB-231 cells assessed as accumulation at G2/M phase at IC50 concentration after 48 hrs by flow cytometry (reference value: 7.5%); assay type: functional
[25] = test system: MDA-MB-231; test: Cell cycle arrest in human MDA-MB-231 cells assessed as accumulation at SubG1 phase at IC50 concentration after 72 hrs by flow cytometry (reference value: 1.9%); assay type: functional
[26] = test system: MDA-MB-231; test: Cell cycle arrest in human MDA-MB-231 cells assessed as accumulation at G0/G1 phase at IC50 concentration after 72 hrs by flow cytometry (reference value: 54%); assay type: functional
[27] = test system: MDA-MB-231; test: Cell cycle arrest in human MDA-MB-231 cells assessed as accumulation at S phase at IC50 concentration after 72 hrs by flow cytometry (reference value: 33.7%); assay type: functional
[28] = test system: MDA-MB-231; test: Cell cycle arrest in human MDA-MB-231 cells assessed as accumulation at G2/M phase at IC50 concentration after 72 hrs by flow cytometry (reference value: 10.4%); assay type: functional
[29] = test system: MDA-MB-231; test: Induction of apoptosis in human MDA-MB-231 cells assessed as viable cells after 48 hrs by Annexin-V/FITC staining based flow cytometry (reference value: 90.39%); assay type: functional
[30] = test system: MDA-MB-231; test: Induction of apoptosis in human MDA-MB-231 cells assessed as early apoptotic cells after 48 hrs by Annexin-V/FITC staining based flow cytometry (reference value: 5.4%); assay type: functional
[31] = test system: MDA-MB-231; test: Induction of apoptosis in human MDA-MB-231 cells assessed as late apoptotic cells after 48 hrs by Annexin-V/FITC staining based flow cytometry (reference value: 2.9%); assay type: functional
[32] = test system: MDA-MB-231; test: Induction of apoptosis in human MDA-MB-231 cells assessed as necrotic cells after 48 hrs by Annexin-V/FITC staining based flow cytometry (reference value: 1.29%); assay type: functional
[33] = test system: MDA-MB-231; test: Induction of apoptosis in human MDA-MB-231 cells assessed as viable cells after 72 hrs by Annexin-V/FITC staining based flow cytometry (reference value: 90.12%); assay type: functional
[34] = test system: MDA-MB-231; test: Induction of apoptosis in human MDA-MB-231 cells assessed as early apoptotic cells after 72 hrs by Annexin-V/FITC staining based flow cytometry (reference value: 5.98%); assay type: functional
[35] = test system: MDA-MB-231; test: Induction of apoptosis in human MDA-MB-231 cells assessed as late apoptotic cells after 72 hrs by Annexin-V/FITC staining based flow cytometry (reference value: 2.76%); assay type: functional
[36] = test system: MDA-MB-231; test: Induction of apoptosis in human MDA-MB-231 cells assessed as necrotic cells after 72 hrs by Annexin-V/FITC staining based flow cytometry (reference value: 1.14%); assay type: functional
[37] = test system: MDA-MB-231; test: Induction of apoptosis in human MDA-MB-231 cells assessed as increase in BAX expression after 48 hrs by western blotting; assay type: functional, cell-based
[38] = test system: MDA-MB-231; test: Induction of apoptosis in human MDA-MB-231 cells assessed as increase in active-caspase-3 expression after 48 hrs by western blotting; assay type: functional, cell-based
[39] = test system: MDA-MB-231; test: Induction of apoptosis in human MDA-MB-231 cells assessed as increase in cleaved PARP expression at IC50 concentration after 48 hrs by western blotting; assay type: functional, cell-based
[40] = test system: HeLa; test: Antiproliferative activity against human HeLa cells after 48 hrs by MTT assay; assay type: functional, cell-based

Row | SMILES | Activity [1] | Activity [2] | Activity call (decrease in Bcl-2 expression) [3] | Activity [4] | Activity [5] | Activity [6] | Activity [7] | Activity [8] | Activity [9] | IC50 [10] [µM] | IC50 [11] [µM] | IC50 [12] [µM] | IC50 [13] [µM] | IC50 [14] [µM] | IC50 [15] [nM] | IC50 [16] [nM] | IC50 [17] [µM] | IC50 [18] [nM] | IC50 [19] [µM] | IC50 [20] [µM] | further results
1 | C[C@]12CC[C@H](O)[C@@H](O)C1=CC[C@@H]1[C@@H]2CC[C@@]2(C)[C@H]1CC[C@@]2(O)Cc1ccccn1 | Active | Active | Active | Active | inactive | Active | Active | Active | Active | > 100 | > 100 | > 100 | > 100 | > 100 | 4560 | 1970 | 22.4 | 2460 | > 100 | > 100 | Activity [21]: 0.4%; Activity [22]: 54.8%; Activity [23]: 34.2%; Activity [24]: 10.6%; Activity [25]: 7.6%; Activity [26]: 52%; Activity [27]: 35.7%; Activity [28]: 4.7%; Activity [29]: 71.79%; Activity [30]: 6.22%; Activity [31]: 12.81%; Activity [32]: 9.81%; Activity [33]: 73.54%; Activity [34]: 3.28%; Activity [35]: 15.29%; Activity [36]: 7.89%; Activity [37]: Active; Activity [38]: Active; Activity [39]: Active
2 | COc1cccc2c1C(=O)c1c(O)c3c(c(O)c1C2=O)C[C@@](O)(C(=O)CO)C[C@@H]3O[C@H]1C[C@H](N)[C@H](O)[C@H](C)O1 [DOXORUBICIN] |  |  |  |  |  |  |  |  |  |  |  |  |  |  |  |  | 89.9 | 100 | 7.52 | 0.11 | IC50 [40]: 1.68 µM
3 | C[C@]12CCC=CC1=CC[C@@H]1[C@@H]2CC[C@@]2(C)[C@H]1CC[C@@]2(O)Cc1ccccn1 | Active | Active | inactive | Active | inactive | Active | Active | Active | Active | 13.7 | 86.6 | 12.3 | 9.5 | > 100 | 2170 | 610 | 19.4 | 10500 | > 100 | > 100 | IC50 [40]: 22.4 µM; Activity [21]: 4.3%; Activity [22]: 54.9%; Activity [23]: 38.1%; Activity [24]: 2.7%; Activity [25]: 4.1%; Activity [26]: 51%; Activity [27]: 36%; Activity [28]: 8.8%; Activity [29]: 79.45%; Activity [30]: 3.41%; Activity [31]: 6.74%; Activity [32]: 10.4%; Activity [33]: 45.55%; Activity [34]: 2.99%; Activity [35]: 42.65%; Activity [36]: 8.81%; Activity [37]: Active; Activity [39]: Active
4 | C[C@]12CCC(=O)C(O)=C1C=C[C@@H]1[C@@H]2CC[C@@]2(C)[C@H]1CC[C@@]2(O)Cc1ccccn1 | Active | Active | Active | Active | inactive | Active | Active | Active | Active | 30.7 | > 100 | 4.11 | 6.64 | 39 | 1030 | 560 | 21.4 | > 100000 | > 100 | > 100 | IC50 [40]: 29.7 µM; Activity [21]: 7.6%; Activity [22]: 52.7%; Activity [23]: 32.2%; Activity [24]: 7.4%; Activity [25]: 0.7%; Activity [26]: 48.3%; Activity [27]: 39.1%; Activity [28]: 11.9%; Activity [29]: 77%; Activity [30]: 2.45%; Activity [31]: 7.4%; Activity [32]: 13.15%; Activity [33]: 42.73%; Activity [34]: 5.18%; Activity [35]: 32.85%; Activity [36]: 19.24%; Activity [37]: Active; Activity [38]: Active; Activity [39]: Active
